Earlier results in US20070225258A1, “COMPOSITIONS COMPRISING BISPHOSPHONATE AND AN ANTIFOLATE” (PROPRIUS PHARMACEUTICALS, INC., priority 2006, published 2007).

System: patients with RA

## CN(Cc1cnc2nc(N)nc(N)c2n1)c1ccc(C(=O)N[C@@H](CCC(=O)O)C(=O)O)cc1 [methotrexate]
  Proportion of RA patients in whom treatment is effective: effective in only one in three patients
